From patent US7015228B2, “4-amino-2-(2-pyridyl)pyrimidines as microbicidal active substances” (Ciba Specialty Chemicals Corporation, priority 2001, dated 2006)
Converted amounts (≈) assume the structure as drawn.

Tests used:
Assay type in all cases: cell-based
[1] = system: Trichophyton mentagrophytes ATCC 9533; assay: Minimum inhibitory concentration (MIC), further microorganisms; settings: Table 8; * = significant inhibition of growth, but not complete inhibition
Procedure, shortened: (§1)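 Broth microdilution in DMSO, 1:2 series; inocula adjusted to 1–5×10^6 CFU/ml then diluted 1:100 in CASO broth (bacteria, yeast) or Sabouraud 2% glucose broth (mould). Incubation 48 h at 37° C or 5 days at 28° C; MIC = lowest concentration giving ≦20% growth versus control by OD 620 nm.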

[2] = system: Pseudomonas aeruginosa CIP A-22; assay: as above; settings: Table 8
Procedure, shortened: as §1

[3] = system: Epidermophyton floccosum DSM 10709; assay: as above; settings: Table 8; * = significant inhibition of growth, but not complete inhibition
Procedure, shortened: as §1

[4] = system: Candida albicans ATCC 10231; assay: as above; settings: Table 8; * = significant inhibition of growth, but not complete inhibition
Procedure, shortened: as §1

[5] = system: Aspergillus niger ATCC 6275; assay: as above; settings: Table 8; * = significant inhibition of growth, but not complete inhibition
Procedure, shortened: as §1

[6] = system: S. epidermidis ATCC 12228; assay: as above; settings: Table 8; * = significant inhibition of growth, but not complete inhibition
Procedure, shortened: as §1

[7] = system: Staphylococcus aureus ATCC 9144; assay: as above; settings: Table 8; * = significant inhibition of growth, but not complete inhibition
Procedure, shortened: as §1

[8] = system: Klebsiella pneumonia ATCC 4352; assay: as above; settings: Table 8; * = significant inhibition of growth, but not complete inhibition
Procedure, shortened: as §1

[9] = system: Micrococcus luteus ATCC 9341; assay: as above; settings: Table 8; * = significant inhibition of growth, but not complete inhibition
Procedure, shortened: as §1

[10] = system: Enterococcus hirae ATCC 10541; assay: as above; settings: Table 8; * = significant inhibition of growth, but not complete inhibition
Procedure, shortened: as §1

[11] = system: Salmonella choleraesuis ATCC 10708; assay: as above; settings: Table 8
Procedure, shortened: as §1

[12] = system: Staphylococcus hominis DMS 20328; assay: Minimum inhibitory concentration (MIC) in microtitre plates; settings: Table 7; 48 hours at 37° C.; MIC = ≦20% growth compared to control
Procedure, shortened: (§2)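 Compounds in DMSO, 1:2 dilution series; bacteria at 1–5×10^6 CFU/ml diluted 1:100 in CASO broth. Incubation 48 h at 37° C, growth read as OD 620 nm. MIC is the lowest concentration giving ≤20% growth relative to control; duplicates.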

[13] = system: Escherichia coli NCTC 8196; assay: as above; settings: for Minimum inhibitory concentration (MIC) E. coli: Table 7, 48 hours at 37° C., MIC = ≦20% growth compared to control; for Minimum inhibitory concentration (MIC) E. coli NCTC 8196: Table 8, * = significant inhibition of growth, but not complete inhibition
Procedure, shortened: as §2

| SMILES | Minimum inhibitory concentration (MIC) Trichophyton mentagrophytes ATCC 9533 [1] | Minimum inhibitory concentration (MIC) Pseudomonas aeruginosa CIP A-22 [2] [µg/mL] | Minimum inhibitory concentration (MIC) Epidermophyton floccosum DSM 10709 [3] [µg/mL] | Minimum inhibitory concentration (MIC) Candida albicans ATCC 10231 [4] [µg/mL] | Minimum inhibitory concentration (MIC) Aspergillus niger ATCC 6275 [5] | Minimum inhibitory concentration (MIC) S. epidermidis ATCC 12228 [6] | Minimum inhibitory concentration (MIC) Staphylococcus aureus ATCC 9144 [7] | Minimum inhibitory concentration (MIC) Klebsiella pneumonia ATCC 4352 [8] | Minimum inhibitory concentration (MIC) Micrococcus luteus ATCC 9341 [9] | Minimum inhibitory concentration (MIC) Enterococcus hirae ATCC 10541 [10] [µg/mL] | Minimum inhibitory concentration (MIC) Salmonella choleraesuis ATCC 10708 [11] [µg/mL] | Minimum inhibitory concentration (MIC) S. hominis [12] [µg/mL] | Minimum inhibitory concentration (MIC) E. coli [13] [µg/mL] | Minimum inhibitory concentration (MIC) E. coli NCTC 8196 [13] [µg/mL] |
| --- | --- | --- | --- | --- | --- | --- | --- | --- | --- | --- | --- | --- | --- | --- |
| Cc1nc(-c2ccccn2)nc(NCCCCCCCCN)c1C(C)C [compound 65] | >60 µg/mL | >60 | >60 | >60 | >60 µg/mL | >60 µg/mL | >60 µg/mL | >60 µg/mL | >60 µg/mL | >60 | >60 | 30 (≈ 84.4 µM) | 120 (≈ 338 µM) | >60 |
| Cc1nc(-c2ccccn2)nc(NCCCCCCCCCN)c1C(C)C [compound 66] | >60 µg/mL | >60 | >60 | >60 | >60 µg/mL | 60 µg/mL (≈ 162 µM) | 60 µg/mL (≈ 162 µM) | >60 µg/mL | *30 μg/mL | >60 | >60 | 3.75 (≈ 10.1 µM) | 30 (≈ 81.2 µM) | >60 |
| CCCCCCCCNc1nc(-c2ccccn2)nc(C)c1C(C)C [compound 69] | *15 μg/mL | >60 | 15 (≈ 44.1 µM) | 60 (≈ 176 µM) | *60 μg/mL | 7.5 µg/mL (≈ 22 µM) | 7.5 µg/mL (≈ 22 µM) | *60 μg/mL | <3.75 µg/mL | 3.75 (≈ 11 µM) | >60 | 3.75 (≈ 11 µM) | 120 (≈ 352 µM) | >60 |
| COCCc1cc(NCCCCCCCCN)nc(-c2ccccn2)n1 [compound 77] | >60 µg/mL | >60 | >60 | >60 | >60 µg/mL | >60 µg/mL | >60 µg/mL | >60 µg/mL | >60 µg/mL | >60 | >60 | 30 (≈ 83.9 µM) | 120 (≈ 336 µM) | >60 |
| COCCc1cc(NCCCCCCCCCN)nc(-c2ccccn2)n1 [compound 78] | >60 µg/mL | >60 | >60 | >60 | >60 µg/mL | *60 μg/mL | *60 μg/mL | >60 µg/mL | >60 µg/mL | >60 | >60 | 15 (≈ 40.4 µM) | 60 (≈ 161 µM) | >60 |
